Source: DBAASP
Values after ≈ are worked out from the molar mass of the structure shown. Values joined by “and” are separate entries in the source; they are usually repeats but may differ in a detail not shown here. Equal entries are not always repeated.

Experiments:
Assay in all cases: ≥ marks a high value that may be exact or a test limit, other limits are often not marked, values filed in µg/mL are converted to µM
[1] = system: Aeromonas salmonicida NCIMB 1102
[2] = system: Bacillus subtilis IAM 1026
[3] = system: Escherichia coli JCM 1649
[4] = system: Photobacterium damselae subsp. piscicida Sp 9587
Salmonella typhimurium = system: Salmonella typhimurium
[5] = system: Shewanella putrefaciens IAM 1509
[6] = system: Staphylococcus aureus IAM 1011
[7] = system: Vibrio anguillarum NCIMB 829
[8] = system: Vibrio parahaemolyticus Vp+1
Escherichia coli DC2 = system: Escherichia coli DC2
Escherichia coli K-12 = system: Escherichia coli K-12
[9] = system: Staphylococcus aureus UAMS-1
Staphylococcus aureus = system: Staphylococcus aureus

| MIC [1] [µM] | MIC [2] [µM] | MIC [3] [µM] | MIC [4] [µM] | MIC (Salmonella typhimurium) [µM] | MIC [5] [µM] | MIC [6] [µM] | MIC [7] [µM] | MIC (Escherichia coli DC2) [µM] | MIC (Escherichia coli K-12) [µM] | MIC [9] [µM] | MIC (Staphylococcus aureus) | Compound | MIC [8] [µM] |
| --- | --- | --- | --- | --- | --- | --- | --- | --- | --- | --- | --- | --- | --- |
| 8 (≈ 25 µg/mL) | 8 (≈ 25 µg/mL) | 16 (≈ 50 µg/mL) | 8 (≈ 25 µg/mL) | 16 (≈ 50 µg/mL) | 2 (≈ 6.25 µg/mL) | 4 (≈ 12.5 µg/mL) | 16 (≈ 50 µg/mL) |  |  |  |  | CC(C)C[C@H](NC(=O)[C@H](Cc1cnc[nH]1)NC(=O)CNC(=O)[C@H](C)NC(=O)[C@H](C)NC(=O)[C@@H](NC(=O)[C@H](Cc1ccccc1)NC(=O)[C@H](C)NC(=O)[C@H](CC(C)C)NC(=O)[C@H](CCCCN)NC(=O)[C@H](CCCCN)NC(=O)[C@H](CC(C)C)NC(=O)[C@H](CC(C)C)NC(=O)[C@H](CCC(=O)O)NC(=O)[C@H](CCCN=C(N)N)NC(=O)[C@H](Cc1c[nH]c2ccccc12)NC(=O)[C@@H](N)Cc1c[nH]c2ccccc12)[C@@H](C)O)C(=O)NCC(=O)N[C@@H](CO)C(=O)N[C@H](C(=O)N[C@@H](CC(C)C)C(=O)N[C@@H](C)C(=O)N[C@@H](C)C(=O)N[C@@H](CCCCN)C(=O)N[C@@H](CCC(N)=O)C(=O)N[C@@H](CO)C(=O)NCC(=O)N[C@@H](Cc1c[nH]c2ccccc12)C(=O)O)C(C)C [WWRELLKKLAFTAAGHLGSVLAAKQSGW] | 16 (≈ 50 µg/mL) |
|  |  |  |  |  |  |  |  | 2 (≈ 5.67 µg/mL) | ≥ 40 | ≥ 160 | > 24 µM and 12 µM | CC[C@H](C)[C@H](NC(=O)[C@H](CCCCN)NC(=O)[C@H](CCC(=O)O)NC(=O)[C@H](CCCCN)NC(=O)[C@@H](NC(=O)[C@H](CCCCN)NC(=O)[C@H](CCCN=C(N)N)NC(=O)[C@H](Cc1ccccc1)NC(=O)[C@H](Cc1ccccc1)NC(=O)[C@H](CC(=O)O)NC(=O)CNC(=O)[C@H](CC(C)C)NC(=O)[C@@H](N)CC(C)C)C(C)C)C(=O)NCC(=O)N[C@@H](CCCCN)C(=O)N[C@@H](CCC(=O)O)C(=O)N[C@@H](Cc1ccccc1)C(=O)N[C@@H](CCCCN)C(=O)N[C@@H](CCCN=C(N)N)C(=O)N[C@H](C(=O)N[C@H](C(=O)N[C@@H](CCC(N)=O)C(=O)N[C@@H](CCCN=C(N)N)C(=O)O)C(C)C)[C@@H](C)CC [LLGDFFRKVKEKIGKEFKRIVQR] |  |
| 19.3 (≈ 50 µg/mL) | 19.3 (≈ 50 µg/mL) | 19.3 (≈ 50 µg/mL) | 9.66 (≈ 25 µg/mL) | 19.3 (≈ 50 µg/mL) | 4.83 (≈ 12.5 µg/mL) | 19.3 (≈ 50 µg/mL) | 19.3 (≈ 50 µg/mL) |  |  |  |  | CC[C@H](C)[C@H](NC(=O)[C@H](CCC(N)=O)NC(=O)CNC(=O)[C@H](CC(C)C)NC(=O)[C@@H](NC(=O)[C@H](CCCCN)NC(=O)[C@H](CCCN=C(N)N)NC(=O)[C@H](Cc1c[nH]c2ccccc12)NC(=O)[C@@H](N)CC(N)=O)[C@@H](C)CC)C(=O)N[C@@H](C)C(=O)N[C@@H](CO)C(=O)N[C@H](C(=O)NCC(=O)N[C@@H](C)C(=O)NCC(=O)N[C@@H](CC(C)C)C(=O)N[C@@H](CC(C)C)C(=O)NCC(=O)N[C@@H](CO)C(=O)N[C@@H](CC(C)C)C(=O)N[C@@H](CC(C)C)C(=O)N[C@@H](C)C(=O)NCC(=O)N[C@@H](Cc1ccc(O)cc1)C(=O)N[C@@H](CCC(=O)O)C(=O)O)C(C)C [NWRKILGQIASVGAGLLGSLLAGYE] | 19.3 (≈ 50 µg/mL) |
